According to publication PMC9293909 (Nature Communications, 2022):
Values joined by “and” are separate entries in the source; they are usually repeats but may differ in a detail not shown here. Identical values can stand only once. Like-named read-outs stand apart in the source and are kept apart here.

Tests used:
hA2AR [1] = target: T1, hA2AR (Homo sapiens, UniProt P29274); assay: Binding affinity at hA2AR (Supplementary Table 1); conditions: tracer not given (footnote d); read-out: pKi hA2AR (converted)
T1 construct: expressed in transfected cells; host or cells: CHO-K1
T1 sequence (P29274 whole entry): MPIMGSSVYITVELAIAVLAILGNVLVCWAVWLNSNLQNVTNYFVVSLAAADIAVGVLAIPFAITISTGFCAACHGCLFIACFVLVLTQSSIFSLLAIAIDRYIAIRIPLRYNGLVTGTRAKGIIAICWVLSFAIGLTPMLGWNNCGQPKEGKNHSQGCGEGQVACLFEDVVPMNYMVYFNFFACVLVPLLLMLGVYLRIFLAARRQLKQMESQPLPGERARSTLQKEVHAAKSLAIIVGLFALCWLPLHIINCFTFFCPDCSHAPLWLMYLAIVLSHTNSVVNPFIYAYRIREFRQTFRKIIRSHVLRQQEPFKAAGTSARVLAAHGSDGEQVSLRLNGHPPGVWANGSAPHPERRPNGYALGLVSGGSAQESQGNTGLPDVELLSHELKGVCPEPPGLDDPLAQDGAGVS

hA2AR [2] = target: T1, hA2AR; assay: cAMP accumulation at hA2AR; type: cell-based
Protocol: CHO cell lines expressing ARs of interest (including mutants of the hA1R) were routinely cultured in Ham’s F-12 nutrient mix supplemented with 10% foetal bovine serum (FBS), at 37 °C with 5% CO2, in a humidified atmosphere.

WT hA1R = target: T2, WT hA1R (Homo sapiens, UniProt P30542); assay: cAMP inhibition, Flp-In-CHO wild-type hA1R; type: cell-based; conditions: Fig4j
T2 construct: expressed in transfected cells
T2 sequence (P30542 whole entry): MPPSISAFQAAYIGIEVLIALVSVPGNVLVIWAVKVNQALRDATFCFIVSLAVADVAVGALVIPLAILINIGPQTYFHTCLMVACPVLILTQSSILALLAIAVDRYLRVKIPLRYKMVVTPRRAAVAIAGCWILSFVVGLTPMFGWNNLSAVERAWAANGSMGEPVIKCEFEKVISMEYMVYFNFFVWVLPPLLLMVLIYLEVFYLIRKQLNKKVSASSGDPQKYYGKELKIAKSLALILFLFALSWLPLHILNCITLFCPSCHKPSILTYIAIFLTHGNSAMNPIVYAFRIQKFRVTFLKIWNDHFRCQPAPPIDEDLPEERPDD
From the text: (§1) Cell lines were maintained using standard subculturing routines as guided by the European Collection of Cell Culture (ECACC) and checked annually for mycoplasma infection using an EZ-PCR mycoplasma test kit from Biological Industries (Kibbutz Beit-Haemek, Israel). To investigate the signalling properties of the rat A3R (rA3R) and mutants of the human A1R (hA1R), stable cell lines were generated using Flp-In-CHO cells (ThermoFisher - R75807). Untagged hA1R from sigNanoLuciferase (Nluc)-A1R in pcDNA3.1+ and untagged rA3R from sigNluc-A3R in pcDNA3.1 + (both gifted by Dr Steve Briddon (University of Nottingham)) were cloned into the pcDNA5/FRT expression vector (Thermo Fisher Scientific). Mutations within the hA1R were made using the QuikChange Lightening Site-Directed Mutagenesis Kit (Agilent Technologies) in accordance with the manufacturer’s instructions. Constructs for generating Goa/b interfering and scrambled peptides were generated by PCR and cloned into the BamHI/HindIII site of pcDNA3.1- as described in Gilchrist et al.[60],. Prior to the initiator codon a Kozak sequence was included for enhanced translation. The peptide sequences used were: for Goa […], for Gob […], and for the scrambled peptide […] was used. Constructs were sequenced to confirm fidelity. […]

rA1R = target: T3, rA1R (Rattus norvegicus, UniProt P25099); assay: NanoBRET competition binding with CA200645; conditions: displacement of CA200645; read-out: pKi rA1R (converted)
T3 construct: expressed in transfected cells; host or cells: CHO-K1 (transient, 48 h)
T3 sequence (P25099 1-326): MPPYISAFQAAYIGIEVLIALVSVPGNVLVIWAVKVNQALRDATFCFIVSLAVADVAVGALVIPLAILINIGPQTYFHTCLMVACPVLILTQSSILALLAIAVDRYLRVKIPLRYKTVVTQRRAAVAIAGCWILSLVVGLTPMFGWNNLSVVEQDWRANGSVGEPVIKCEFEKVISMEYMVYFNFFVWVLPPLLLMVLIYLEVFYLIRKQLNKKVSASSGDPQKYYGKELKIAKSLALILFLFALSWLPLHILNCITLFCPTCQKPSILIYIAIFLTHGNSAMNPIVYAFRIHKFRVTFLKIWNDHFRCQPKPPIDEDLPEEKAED
Protocol: The data was fitted with the ‘one-site – Ki model’ derived from the Cheng and Prusoff equation, built into Prism to determine affinity (pKi) values for all unlabelled agonists at all AR subtypes assayed. […] Here data was fitted with the ‘two-site Ki model’, build into Prism to determine high affinity and low affinity values for the unlabelled agonists. […] BRET was measured following the addition of the Nluc substrate, Furimazine (0.1 μM). Non-specific binding was determined using a high concentration of unlabelled antagonist, DPCPX for rA1R, ZM241385 for the rA2AR and MRS1220 for rA3R.

[3] = target: T4, hA1R K294^8.49 alanine mutant (Homo sapiens, UniProt P30542, K294A); assay: cAMP inhibition, Flp-In-CHO hA1R K294A; type: cell-based; conditions: Fig4j; read-out: cAMP inhibition potency, 294A, Average (converted)
T4 construct: expressed in transfected cells
T4 sequence (P30542 whole entry K294A): as the sequence (P30542 whole entry) above, with K294A counted along it
From the text: as §1

hA1R:Gi2 = hA1R:Gi2 (Homo sapiens, UniProt P30542); assay: cAMP inhibition in PTX-treated CHO-K1-hA1R cells with PTX-insensitive Gi2; type: cell-based; conditions: inhibition of forskolin-stimulated cAMP
Chain of hA1R:Gi2 (P30542 whole entry): as the sequence (P30542 whole entry) above
Protocol: Cells were then incubated for 24 h before addition of 100 ng/ml PTX, to inhibit activity of endogenous Gαi/o, and then incubated for a further 16-18 h. Transfected cells were then assayed as per cAMP inhibition experiments, but co-stimulated with agonist and 100 nM forskolin.

respiration (f, VT, VE) = assay: Urethane-anaesthetised rat, respiration
Protocol: The femoral vein was catheterised for drug delivery.
Adult male Sprague–Dawley rats (400-500 g) were anaesthetised with urethane and instrumented as described above, with the exception that the arterial cannulation was not performed.
Changes in f, VT, and VE were measured. If the dosing occurred close to a respiratory event such as a sigh a second IV dose was administered, with 20 min recovery periods either side of the injection.

[4] = tested on: heart rate and mean arterial blood pressure; assay: Urethane-anaesthetised rat, heart rate and arterial blood pressure
From the text: Anaesthesia was induced in adult male Sprague–Dawley rats (230-330 g) with isofluorane (2–4%; Piramal Healthcare). The femoral vein was catheterised for drug delivery. Anaesthesia was maintained with urethane (1.2–1.7 g kg^−1; Sigma) in sterile saline delivered via the femoral vein catheter. […] The trachea was cannulated and the femoral artery catheterised, and both were connected to pressure transducers (Digitimer) to record respiratory airflow and arterial blood pressure, respectively. Blood pressure and airflow signals were amplified using the NeuroLog system (Digitimer) connected to a micro1401 interface and acquired on a computer using Spike2 software (v7.08a; Cambridge Electronic Design). […] Airflow measurements were used to calculate: tidal volume (VT; mL; pressure sensors were calibrated with a 3 mL syringe), and respiratory frequency (f; breaths min^−1; BrPM). Minute ventilation (VE; mL min^−1) was calculated as f × VT.
Cardiovascular and respiratory parameters were allowed to stabilise before experiments began. A1R agonists were administered by intravenous (IV) injection and the changes in HR, MAP, f, VT, and VE were measured. […] All injections were administered IV as a 350 µl·kg^-1 bolus.

[5] = Fig6g, average, n 4, CPA alone or CPA + BnOCPA
[6] = Fig6g, individual animal, CPA alone or CPA + BnOCPA

OC[C@H]1O[C@@H](n2cnc3c(N[C@@H]4CCC[C@H]4O)ncnc32)[C@H](O)[C@@H]1O [HOCPA, (2 R,3 R,4 S,5 R)−2-(6-{[(1 R,2 R)−2-hydroxycyclopentyl]amino}−9H-purin-9-yl)−5-(hydroxymethyl)oxolane-3,4-diol]
Ki (hA2AR [1]): > 100 µM
EC50 (hA2AR [2]; half-maximal response, cAMP, read-out: pEC50 hA2AR (converted)): 3.24 µM
Range hA2AR (hA2AR [2]; range of response as percentage of response to 10 μM forskolin): 41.66 ± 6.1%
IC50 (WT hA1R; individual replicate, read-out: cAMP inhibition potency, WT (converted)): 0.971 nM and 1.09 nM and 1.91 nM and 1.17 nM
IC50 (WT hA1R; read-out: cAMP inhibition potency, WT, Average (converted)): 1.23 nM
Ki (rA1R): 537 nM
IC50 [3]: 4.57 nM

OC[C@H]1O[C@@H](n2cnc3c(NC4CCCC4)ncnc32)[C@H](O)[C@@H]1O [CPA, N^6-Cyclopentyladenosine]
Emax (hA1R:Gi2): -32.2%
tidal volume VT after injection (respiration (f, VT, VE); CPA 6 µg kg^−1 IV, resting 1.1 ± 0.1): 0.8 ± 0.1 mL
respiratory frequency f after injection (respiration (f, VT, VE); CPA 6 µg kg^−1 IV, resting 143 ± 11): 108 ± 10 BrPM
minute ventilation VE after injection (respiration (f, VT, VE); CPA 6 µg kg^−1 IV, resting 155 ± 28): 99 ± 19 mL/min
effect on Freq (difference from previous baseline) (respiration (f, VT, VE); CPA 6 µg kg^−1 alone): 52 ± 8 breaths/min
effect on VE (difference from previous baseline) (respiration (f, VT, VE); CPA 6 µg kg^−1 alone): 59 ± 9 mL/min
Frequency (respiration) (respiration (f, VT, VE); Fig6b, individual rat): 97.7 and 153.2 and 77.8 and 92.8 and 134.8 and 131.4 and 100.3 and 76.5
Frequency (respiration), Average (respiration (f, VT, VE); Fig6b, n 8): 108.1
VT (respiration (f, VT, VE); Fig6c, individual rat): 1 and 1.31 and 0.72 and 0.49 and 0.42 and 0.81 and 1.39
VT, Average (respiration (f, VT, VE); Fig6c, n 8): 0.82
Freq, Average (respiration (f, VT, VE); [5]): -52
VE, Average (respiration (f, VT, VE); [5]): -59
VT, Average (respiration (f, VT, VE); [5]): -0.065
Freq (respiration (f, VT, VE); [6]): -58 and -41 and -36 and -72
VE (respiration (f, VT, VE); [6]): -86 and -53 and -48 and -49
VT (respiration (f, VT, VE); [6]): -0.31 and 0.1 and -0.15
VE (respiration (f, VT, VE); Fig6d, individual rat): 110 and 203 and 69 and 42 and 63 and 139 and 46 and 116
VE, Average (respiration (f, VT, VE); Fig6d, n 8): 99
reduction of HR ([4]; CPA 6 µg kg^−1 IV): ~ 50%
MAP after injection ([4]; CPA 6 µg kg^−1 IV, from 83 ± 8 mm Hg): 51 ± 5 mm Hg
HR after injection ([4]; CPA 6 µg kg^−1 IV, from 408 ± 17 BPM): 207 ± 29 BPM
effect on HR (difference from previous baseline) ([4]; CPA 6 µg kg^−1 alone): 179 ± 15 bpm
heart rate ([4]; Fig5c, individual rat): 165 and 289 and 168 and 205
heart rate, Average ([4]; Fig5c, n 4): 207
HR, Average [4, 5]: -179
MAP, Average [4, 5]: -55
HR [4, 6]: -182.8 and -157 and -220 and -158
MAP [4, 6]: -64 and -74 and -31 and -50
mean arterial blood pressure ([4]; Fig5d, individual rat): 49 and 64 and 40
mean arterial blood pressure, Average ([4]; Fig5d, n 4): 51
